Test results taken from patent US12186304B2, “Method for treating cancer by combination of IAP inhibitor and modulator of immune checkpoint molecule” (ASCENTAGE PHARMA (SUZHOU) CO., LTD., priority 2018, dated 2025).

Key:
[1] = test system: CT26 colorectal cancer; test: Combination therapy in CT26 mouse colorectal cancer model; assay type: in vivo; conditions: for T/C (%) value on day 18 after administration: APG-1387 0.2 mg/kg i.v. once daily, docetaxel 8 mg/kg i.p. once weekly, anti-PD-1 200 μg/mouse i.p. twice weekly
Protocol: Cell inoculation method was used to establish a […] tumor-immunized normal mouse subcutaneous homograft tumor model: tumor cells in logarithmic growth phase were collected, counted, and then resuspended in 1×PBS. The concentration of the cell suspension was adjusted to 2.5-5×10^7/mL. Tumor cells, 5-10×10^6/0.2 mL/mouse, were inoculated subcutaneously in the right back of the immunized normal mouse with a 1 mL syringe ([…]). All animal experimental operations were strictly in accordance with standards for use and management of laboratory animals by Gima Gene Co., Ltd and Suzhou Yasheng Pharmaceutical Co., Ltd. Relevant parameters were calculated with reference to China's NMPA “Guidelines for Non-clinical Research Techniques of Cytotoxic Antitumor Drugs”.
Animal weight and tumor size were measured twice a week during the experiment. Animals were observed daily for status and the occurrence of death. Routine monitoring included the effects of tumor growth and treatment on the normal behaviors of animals, specifically including the activity, feeding and drinking, weight gain or loss, eyes, clothing hair, as well as other abnormalities of the laboratory animals. The deaths and clinical symptoms observed during the experiment were recorded in the original data. The whole process of administration, measurement of mouse weight and tumor volume was carried out in an ultra-clean bench. According to requirements of the experimental program, plasma and tumor tissue were collected, weighed and photographed for record after the end of last administration. Plasma and tumor samples were frozen at −80° C. for later use.
Tumor volume (TV) was calculated as TV=a×b^2/2, wherein a and b represented the length and width of tumor measurement, respectively.
Relative tumor volume (RTV) was calculated as RTV=Vt/V1, wherein V1 was the tumor volume at the time of grouping administration, and Vt was the tumor volume measured on day t after administration.
The evaluation index of anti-tumor activity was relative tumor proliferation rate T/C (%), and was calculated as: relative tumor proliferation rate T/C (%)=(TRTV/CRTV)×100%, wherein TRTV was RTV in treatment group, and CRTV was RTV in vehicle control group.
Tumor remission rate (%) was the number of SD (stable disease), PR (partial regression) and CR (complete regression) in tumor-bearing mice after treatment divided by the total number of mice in that group×100%. CR refers to the complete regression of the tumor, which means the tumor is inaccessible after treatment. PR refers to the partial regression of the tumor, which means tumor volume becomes smaller than before treatment. SD refers to stable tumor progression, which means tumor volume is the same as before treatment. Change of body weight (%)=(measurement of body weight−body weight when grouping)/body weight when grouping×100%.
Efficacy evaluation criteria: according to China's NMPA “Guidelines for Non-clinical Research Techniques of Cytotoxic Antitumor Drugs” (November 2006), T/C (%) value 40% and p<0.05 by statistical analysis were considered as efficacious. If the weight loss of mice exceeded 20%, or the drug-related death percentage exceeded 20%, the drug dose was considered to be severely toxic.
According to Clarke R., Issues in experimental design and endpoint analysis in the study of experimental cytotoxic agents in vivo in breast cancer and other models [J].
A tumor model of CT26 colorectal cancer mouse was established, and the combined anti-tumor effect of APG-1387 with anti-PD-1 antibody and docetaxel was evaluated on this model. The administration regimen was as follows:
APG-1387 monotherapy group: 0.2 mg/kg, intravenous injection, once daily for a total of 17 days;
Docetaxel monotherapy group: 8 mg/kg, intraperitoneal injection, once weekly for a total of 17 days;
Anti-PD-1 antibody monotherapy group: 200 μg/mouse, intraperitoneal injection, twice weekly for a total of 2.5 weeks (i.e., 17 days); […]

[2] = test system: murine A20 lymphoma cells; test: Subcutaneous xenograft model of murine A20 lymphoma; assay type: in vivo, female BALB/c mice; conditions: A20 s.c.
Protocol: • (1) APG-1387: provided by Jiangsu Ascentage Pharmaceutical Development Co., Ltd. The batch number is R12JA076140-A2 and PAPG-1387-DP-201305A. Preserved at 4° C., away from the light and sealed. APG-1387 was administered intravenously (i.v.) or intraperitoneally (i.p.) or at a dosage of 10 mL/kg. APG-1387 was dissolved in 5% castor oil/10% PEG400/85% normal saline. • (2) Anti-PD-1 antibody: purchased from BioXcell. The article number is BE0146 and BE0273. Preserved at 4° C. and sealed. The anti-PD-1 antibody was administered intraperitoneally at a concentration of 100 μg per mice or 200 μg per mice. • (3) Isotype control (anti-IgG): purchased from BioXcell, the product number is BE0089. Preserved at 4° C. and sealed. […]
The mice were injected subcutaneously with 0.5-10×10^6 cells or in the ovary with 6×10^6 cells in situ to build the tumor xenograft model. […] For the orthotopic model, tumor growth was measured by examining in vivo fluorescence images 10 days after inoculation. […] Body weight and tumor size were measured twice per week during the experiment. […]
The calculation of tumor related parameters is the same as set forth in Example 1. Using the fluorescence imaging technique, the strength of the fluorescent signal can represent the growth and metastasis of tumors in vivo. […]

Structure (SMILES): CC(=O)O[C@@]12CO[C@@H]1C[C@H](O)[C@@]1(C)C(=O)[C@H](O)C3=C(C)[C@@H](OC(=O)[C@H](O)[C@@H](NC(=O)OC(C)(C)C)c4ccccc4)C[C@@](O)([C@@H](OC(=O)c4ccccc4)[C@H]21)C3(C)C [Docetaxel, docetaxel]
- T/C (%) value on day 18 after administration [1]: 66%
- T/C (%) value on day 18 after administration ([1]; listed as docetaxel): 66%
- Tumor remission rate on day 18 after administration (%) ([1]; day 18): 25%
- Tumor remission rate on day 18 after administration: animals with SD/PR/CR per animals in group ([1]; day 18): 1/4 SD
- Tumor remission rate on day 18 after administration: animals with SD/PR/CR per animals in group ([1]; day 18, listed as docetaxel): ¼
- anti-tumor effect on the 24th day after administration [2]: not significant
